Assays:
[1] = biological target: angiotensin II AT1 receptor; assay: Assay A: Angiotensin II Binding Activity (125I-AII displacement, rat uterine membrane preparation)
Protocol: Assay A: Antiotensin II Binding Activity
Compounds of the invention were tested for ability to bind to the smooth muscle angiotensin II receptor using a rat uterine membrane preparation. […] Rat uterine membranes were prepared from fresh tissue. All procedures were carried out at 4° C. Uteri were stripped of fat and homogenized in phosphate-buffered saline at pH 7.4 containing 5 mM EDTA. The homogenate was centrifuged at 1500×g for 20 min., and the supernatant was recentrifuged at 100,000×g for 60 min. The pellet was resuspended in buffer consisting of 2 mM EDTA and 50 mM Tris-HCl (pH 7.5) to a final protein concentration of 4 mg/ml. […] The reaction was initiates by the addition of membrane protein and the mixture was incubated at 25° C. for 60 min. The incubation was terminated with ice-cold 50 mM Tris-HCl (pH 7.5) and the mixture was filtered to separate membrane-bound labelled peptide from the free ligand. The incubation tube and filter were washed with ice-cold buffer. Filters were assayed for radioactivity in a Micromedic gamma counter. Nonspecific binding was defined as binding in the presence of 10 μM of unlabelled AII. Specific binding was calculated as total binding minus nonspecific binding. […] Binding data were analyzed by a nonlinear least-squares curve fitting program.
1Assay A: Angiotensin II Binding Activity

[2] = tested on: pressor response to AII; assay: Assay C: In vivo Intragastric Pressor Assay Response for AII Antagonists; conditions: rat; for inhibition at 3 mg/kg: po, AII pressor response
Protocol: Assay C: In vivo Intragastric Pressor Assay Response for All Antagonists
Male Sprague-Dawley rats weighing 225-300 grams were anesthetized with methohexital (30 mg/kg, i.p.) and catheters were implanted into the femoral artery and vein. The catheters were tunneled subcutaneously to exit dorsally, posterior to the head and between the scapulae. The catheters were filled with heparin (1000 units/ml of saline). The rats were returned to their cage and allowed regular rat chow and water ad libitum. After full recovery from surgery (3-4 days), rats were placed in Lucite holders and the arterial line was connected to a pressure transducer. Arterial pressure was recorded on a Gould polygraph (mmHg). Angiotensin II was administered as a 30 ng/kg bolus via the venous catheter delivered in a 50 μl volume with a 0.2 ml saline flush. The pressor response in mm Hg was measured by the difference from pre-injection arterial pressure to the maximum pressure achieved. The AII injection was repeated every 10 minutes until three consecutive injections yielded responses within 4 mmHg of each other. These three responses were then averaged and represented the control response to AII. The test compound was suspended in 0.5% methylcellulose in water and was administered by gavage. The volume administered was 2 ml/kg body weight. The standard dose was 3 mg/kg. Angiotensin II bolus injections were given at 30, 45, 60, 75, 120, 150, and 180 minutes after gavage. The pressor response to AII was measured at each time point. The rats were then returned to their cage for future testing. A minimum of 3 days was allowed between tests. Percent inhibition was calculated for each time point following gavage by the following formula: [(Control Response—Response at time point)/Control Response]×100.
3Assay C: In vivo Pressor Response

IC50 [1]	SMILES	Assay C Duration ([2]; dose 30 mg/kg)	Assay C Duration ([2]; dose 100 mg/kg)	Assay C Duration ([2]; dose 3 mg/kg)	inhibition at 3 mg/kg ([2]; dose 3 mg/kg)
200 nM	CCCCc1nc(CCCC)n(Cc2ccc(-c3ccccc3C(=O)NNS(=O)(=O)C(F)(F)F)cc2)n1 [Compound 5]	20 to 30 min			
1300 nM	CCCCc1nc(Cl)nn1Cc1ccc(-c2ccccc2C(=O)O)cc1 [Compound 6]		120 min		
84 nM	CCCCc1nc(Cl)nn1Cc1ccc(-c2ccccc2-c2nnn[nH]2)cc1 [Compound 7]	130 min			
17000 nM	CCCCc1nc(Cl)n(Cc2ccc(-c3ccccc3C(=O)O)cc2)n1 [Compound 8]				
700 nM	CCCCc1nc(Cl)n(Cc2ccc(-c3ccccc3-c3nnn[nH]3)cc2)n1 [Compound 9]	75 min	130 min		
4.9 nM	CCCCc1nc(C(F)(F)CCC)nn1Cc1ccc(-c2ccccc2-c2nnn[nH]2)cc1 [Compound 10]	240 min		100 min	
160 nM	CCCCc1nc(C(F)(F)CCC)n(Cc2ccc(-c3ccccc3-c3nnn[nH]3)cc2)n1 [Compound 11]				
16 nM	CCCc1nc(CCC)n(Cc2ccc(-c3ccccc3-c3nnn[nH]3)cc2)n1 [Compound 15]				
6.4 nM	CCCc1nc(CCC(C)C)n(Cc2ccc(-c3ccccc3-c3nnn[nH]3)cc2)n1 [Compound 16]				
7 nM	CCCCc1nc(-c2ccccc2)nn1Cc1ccc(-c2ccccc2-c2nnn[nH]2)cc1 [Compound 21]				
	CCCCc1nc2cnncc2n1Cc1ccc(-c2ccccc2-c2nnn[nH]2)cc1 [Compound 115]			>240 min	40%
	CCCCc1nc2c(OC(C)=O)nnc(OC(C)=O)c2n1Cc1ccc(-c2ccccc2-c2nnn[nH]2)cc1 [Compound 125]			>240 min	35%
20 nM	CCCCc1cn(CC2CCCCC2)c(=O)n1Cc1ccc(-c2ccccc2-c2nnn[nH]2)nc1 [Compound 205]			>180 min	40%
51 nM	CCCCc1cn(C2C3CC4CC(C3)CC2C4)c(=O)n1Cc1ccc(-c2ccccc2-c2nnn[nH]2)nc1 (stereo not shown) [Compound 213]				
72 nM	CCCCc1nc(CCC)nn1Cc1ccc(-c2ccccc2-c2nnn[nH]2)nc1 [Compound 246]				
43 nM	CCCCc1nc(CC(CC)CC)n(Cc2ccc(-c3ccccc3-c3nnn[nH]3)nc2)n1 [Compound 250]				0%
